Blank lines part the entries; values can stand above or below the compound they belong to.
Tests used:
[1] = system: MCF-7 cells; assay: MTT antiproliferative assay, MCF-7; assay type: cell-based; conditions: Homo sapiens, MCF7; for inhibition at 10 µM: MCF-7, 10 μM; for inhibition at 10 µM / inhibition at 30 µM: 72 h, read-out: Growth inhibition (%) ± SEM; for inhibition at 30 µM: MCF-7, 30 μM
Experimental: (§1) The in vitro anticancer effects of the presented compounds were assessed using the standard MTT [3-(4,5-dimethylthiazol2-yl)-2,5-diphenyltetrazolium bromide] assay on the following human cancer cell lines: cervical (HeLa and SiHa), breast (MCF-7 and MDA-MB-231) and ovarian cancer (A2780). The selectivity of the tested compounds was determined on murine embryonal fibroblast cells (NIH/3T3). The utilised cell lines were purchased from the European Collection of Cell Cultures (Salisbury, UK). The cells were cultivated in Eagle’s minimal essential medium supplemented with 10% fetal bovine serum, 1% non-essential amino acids and 1% antibiotic-antimycotic complex (penicillin, streptomycin, amphotericin B) at 37 °C in a humidified atmosphere containing 5% CO2. All media and supplements were purchased from Lonza Group Ltd. (Basel, Switzerland). The cancer cells were seeded into 96-well plates (5000 cells/well) and incubated overnight, and the test compounds were applied in two different concentrations (10 µM and 30 µM) and incubated for another 72 h under cell-culturing conditions. […] After 72 h, 20 µL of the 5 mg/mL MTT solution was added to each well, and the plates were incubated for 4 h. The medium was removed, and the formazan crystals produced by the mitochondrial activity were dissolved in dimethyl sulfoxide (DMSO) via shaking at 37 °C for 30 min. The absorbances were measured at 545 nm using a microplate reader (SPECTROStar Nano, BMG Labtech, Offenburg, Germany). The reference agent was cisplatin, which is a widely used cytotoxic agent. The IC50 values were calculated using sigmoid curve fitting. Two independent experiments were performed with five parallel wells for each condition. Calculations were performed using the GraphPad Prism 9 software (GraphPad Software Inc., San Diego, CA, USA).

[2] = system: HeLa cells; assay: MTT antiproliferative assay, HeLa; assay type: cell-based; conditions: Homo sapiens, 72 h; for inhibition at 10 µM / inhibition at 30 µM: read-out: Growth inhibition (%) ± SEM
Experimental: as §1

[3] = system: NIH/3T3 fibroblast cells; assay: MTT assay on non-malignant fibroblasts (selectivity); assay type: cell-based, murine; conditions: Mus musculus, NIH3T3; for inhibition at 10 µM: NIH/3T3, 10 μM; for inhibition at 10 µM / inhibition at 30 µM: 72 h, read-out: Growth inhibition (%) ± SEM; for inhibition at 30 µM: NIH/3T3, 30 μM
Experimental: as §1

[4] = system: A2780 cells; assay: MTT antiproliferative assay, A2780; assay type: cell-based; conditions: Homo sapiens; for inhibition at 10 µM: A2780, 10 μM; for inhibition at 10 µM / inhibition at 30 µM: 72 h, read-out: Growth inhibition (%) ± SEM; for inhibition at 30 µM: A2780, 30 μM
Experimental: as §1

[5] = system: MDA-MB-231 cells; assay: MTT antiproliferative assay, MDA-MB-231; assay type: cell-based; conditions: Homo sapiens; for inhibition at 10 µM: MDA-MB-231, 10 μM; for inhibition at 10 µM / inhibition at 30 µM: 72 h, read-out: Growth inhibition (%) ± SEM; for inhibition at 30 µM: MDA-MB-231, 30 μM
Experimental: as §1

[6] = system: SiHa cells; assay: MTT antiproliferative assay, SiHa; assay type: cell-based; conditions: Homo sapiens, 72 h; for inhibition at 10 µM / inhibition at 30 µM: read-out: Growth inhibition (%) ± SEM
Experimental: as §1

[7] = system: human cancer cell lines (HeLa, SiHa, MCF-7, MDA-MB-231, A2780); assay: MTT antiproliferative assay, panel of malignant cells; assay type: cell-based; conditions: for antiproliferative action at higher concentration (in words): 30 μM
Experimental: as §1

melting point: 166 to 170 °C
Compound: COC(=O)[C@]1(C)CCC[C@@]2(C)[C@@H]3CC[C@@]4(CO)C[C@]3(CC[C@@H]21)C[C@H]4N [Compound 6, (4R,4aS,6aR,8R,9R,11aR,11bS)-Methyl 8-amino-9-(hydroxymethyl)-4,11b-dimethyltetradecahydro-6a,9-methanocyclohepta[a]naphthalene-4-carboxylate]
inhibition at 10 µM [1]: 36.4 ± 3.48%
inhibition at 30 µM [1]: 98.58 ± 0.22%
inhibition at 10 µM [2]: 23.2 ± 1.97%
inhibition at 30 µM [2]: 93.94 ± 0.55%
inhibition at 10 µM [3]: 22.1 ± 1.54%
inhibition at 30 µM [3]: 98.27 ± 0.37%
inhibition at 10 µM [4]: 24.8 ± 5.19%
inhibition at 30 µM [4]: 82.5 ± 4.66%
inhibition at 10 µM [5]: 25.8 ± 2.49%
inhibition at 30 µM [5]: 97.6 ± 0.67%
inhibition at 10 µM [6]: < 20%
inhibition at 30 µM [6]: 68.24 ± 0.61%
antiproliferative action at higher concentration (in words) [7]: pronounced cell growth inhibition

melting point: 127 to 130 °C
Compound: COC(=O)[C@]1(C)CCC[C@@]2(C)[C@@H]3CC[C@@]4(CO)C[C@]3(CC[C@@H]21)C[C@@H]4N [Compound 7, (4R,4aS,6aR,8S,9R,11aR,11bS)-Methyl 8-amino-9-(hydroxymethyl)-4,11b-dimethyltetradecahydro-6a,9-methanocyclohepta[a]naphthalene-4-carboxylate]
inhibition at 10 µM [1]: 43.1 ± 3.79%
inhibition at 30 µM [1]: 99.33 ± 0.24%
inhibition at 10 µM [2]: 24.9 ± 2.49%
inhibition at 30 µM [2]: 96.89 ± 0.54%
inhibition at 10 µM [3]: < 20%
inhibition at 30 µM [3]: 97.76 ± 0.7%
inhibition at 10 µM [4]: 27 ± 4.31%
inhibition at 30 µM [4]: 91.6 ± 1.97%
inhibition at 10 µM [5]: 28 ± 1.84%
inhibition at 30 µM [5]: 97.67 ± 0.67%
inhibition at 10 µM [6]: < 20%
inhibition at 30 µM [6]: 88.6 ± 2.01%
antiproliferative action at higher concentration (in words) [7]: pronounced cell growth inhibition

IC50 ([1]; MCF-7, 72 h, read-out: calculated IC50): 3.88 µM
IC50 ([2]; read-out: calculated IC50): 3.4 µM
IC50 ([4]; A2780, 72 h, read-out: calculated IC50): 4.43 µM
melting point: 105 to 108 °C
IC50 ([5]; MDA-MB-231, 72 h, read-out: calculated IC50): 4.51 µM
IC50 ([7]; Homo sapiens, range over the five cancer cell lines): 3.44 to 6.33 µM
Compound: COC(=O)[C@]1(C)CCC[C@@]2(C)[C@@H]3CC[C@@]4(CO)C[C@]3(CC[C@@H]21)C[C@H]4N[C@@H](C)c1ccc2ccccc2c1 [Compound 16, (4R,4aS,6aR,8R,9R,11aR,11bS)-Methyl 9-(hydroxymethyl)-4,11b-dimethyl-8-(((S)-1-(naphthalen-2-yl)ethyl)amino)tetradecahydro-6a,9-methanocyclohepta[a]naphthalene-4-carboxylate]
inhibition at 10 µM [1]: 81 ± 2.03%
inhibition at 30 µM [1]: 97.95 ± 0.56%
inhibition at 10 µM [2]: 55.4 ± 2.81%
inhibition at 30 µM [2]: 95.7 ± 1.12%
inhibition at 10 µM [3]: < 20%
inhibition at 30 µM [3]: 96.83 ± 0.66%
IC50 ([3]; NIH/3T3, 72 h, read-out: calculated IC50): 17.4 µM
inhibition at 10 µM [4]: 97.6 ± 2.81%
inhibition at 30 µM [4]: 100.3 ± 0.57%
inhibition at 10 µM [5]: 84.4 ± 2.92%
inhibition at 30 µM [5]: 93.6 ± 1.23%
inhibition at 10 µM [6]: 80 ± 1.41%
inhibition at 30 µM [6]: 89.4 ± 1.03%
IC50 ([6]; read-out: calculated IC50): 6.33 µM

melting point: 97 to 99 °C
Compound: COC(=O)[C@]1(C)CCC[C@@]2(C)[C@@H]3CC[C@@]4(CN=[N+]=[N-])C[C@]3(CC[C@@H]21)CC4=O [Compound 19, (4R,4aS,6aR,9S,11aR,11bS)-Methyl 9-(azidomethyl)-4,11b-dimethyl-8-oxotetradecahydro-6a,9-methanocyclohepta[a]naphthalene-4-carboxylate]
inhibition at 10 µM [1]: < 20%
inhibition at 30 µM [1]: 38 ± 1.36%
inhibition at 10 µM [2]: 31.6 ± 1.34%
inhibition at 30 µM [2]: 46.86 ± 0.27%
inhibition at 10 µM [3]: < 20%
inhibition at 30 µM [3]: < 20%
inhibition at 10 µM [4]: < 20%
inhibition at 30 µM [4]: 41.7 ± 1.99%
inhibition at 10 µM [5]: < 20%
inhibition at 30 µM [5]: < 20%
inhibition at 10 µM [6]: < 20%
inhibition at 30 µM [6]: < 20%
antiproliferative action at higher concentration (in words) [7]: no substantial action

melting point: 72 to 74 °C
Compound: COC(=O)[C@]1(C)CCC[C@@]2(C)[C@@H]3CC[C@@]4(CN=[N+]=[N-])C[C@]3(CC[C@@H]21)C[C@H]4O [Compound 20, (4R,4aS,6aR,8R,9S,11aR,11bS)-Methyl 9-(azidomethyl)-8-hydroxy-4,11b-dimethyltetradecahydro-6a,9-methanocyclohepta[a]naphthalene-4-carboxylate]
inhibition at 10 µM [1]: < 20%
inhibition at 30 µM [1]: 30.7 ± 0.93%
inhibition at 10 µM [2]: < 20%
inhibition at 30 µM [2]: < 20%
inhibition at 10 µM [3]: < 20%
inhibition at 30 µM [3]: < 20%
inhibition at 10 µM [4]: < 20%
inhibition at 30 µM [4]: 27 ± 2.25%
inhibition at 10 µM [5]: < 20%
inhibition at 30 µM [5]: < 20%
inhibition at 10 µM [6]: < 20%
inhibition at 30 µM [6]: < 20%
antiproliferative action at higher concentration (in words) [7]: no substantial action

melting point: 172 to 176 °C
Compound: COC(=O)[C@]1(C)CCC[C@@]2(C)[C@@H]3CC[C@@]4(Cn5cc(Cc6ccccc6)nn5)C[C@]3(CC[C@@H]21)CC4=O [Compound 34, (4R,4aS,6aR,9S,11aR,11bS)-Methyl 9-((4-benzyl-1H-1,2,3-triazol-1-yl)methyl)-4,11b-dimethyl-8-oxotetradecahydro-6a,9-methanocyclohepta[a]naphthalene-4-carboxylate]
inhibition at 10 µM [1]: 37.5 ± 2.1%
inhibition at 30 µM [1]: 81.3 ± 2.02%
inhibition at 10 µM [2]: < 20%
inhibition at 30 µM [2]: 75.2 ± 1.26%
inhibition at 10 µM [3]: < 20%
inhibition at 30 µM [3]: 72.5 ± 0.96%
inhibition at 10 µM [4]: 31.8 ± 1.6%
inhibition at 30 µM [4]: 89.59 ± 0.45%
inhibition at 10 µM [5]: < 20%
inhibition at 30 µM [5]: 50.1 ± 2.41%
inhibition at 10 µM [6]: < 20%
inhibition at 30 µM [6]: 58.8 ± 2.24%

melting point: 154 to 156 °C
Compound: COC(=O)[C@]1(C)CCC[C@@]2(C)[C@@H]3CC[C@@]4(Cn5cc(-c6ccccc6)nn5)C[C@]3(CC[C@@H]21)C[C@H]4O [Compound 35, (4R,4aS,6aR,8R,9S,11aR,11bS)-Methyl 8-hydroxy-4,11b-dimethyl-9-((4-phenyl-1H-1,2,3-triazol-1-yl)methyl)tetradecahydro-6a,9-methanocyclohepta[a]naphthalene-4-carboxylate]
inhibition at 10 µM [1]: 70 ± 3.11%
inhibition at 30 µM [1]: 88.79 ± 0.44%
inhibition at 10 µM [2]: < 20%
inhibition at 30 µM [2]: 88.11 ± 0.75%
inhibition at 10 µM [3]: 54.8 ± 1.4%
inhibition at 30 µM [3]: 93 ± 1.01%
inhibition at 10 µM [4]: 43.2 ± 1.63%
inhibition at 30 µM [4]: 97.37 ± 0.38%
inhibition at 10 µM [5]: < 20%
inhibition at 30 µM [5]: 92.44 ± 0.59%
inhibition at 10 µM [6]: < 20%
inhibition at 30 µM [6]: 81.4 ± 2.84%

melting point: 112 to 114 °C
Compound: COC(=O)[C@]1(C)CCC[C@@]2(C)[C@@H]3CC[C@@]4(Cn5cc(Cc6ccccc6)nn5)C[C@]3(CC[C@@H]21)C[C@H]4O [Compound 36, (4R,4aS,6aR,8R,9S,11aR,11bS)-Methyl 9-((4-benzyl-1H-1,2,3-triazol-1-yl)methyl)-8-hydroxy-4,11b-dimethyltetradecahydro-6a,9-methanocyclohepta[a]naphthalene-4-carboxylate]
inhibition at 10 µM [1]: 45.9 ± 3.4%
inhibition at 30 µM [1]: 91.8 ± 0.74%
inhibition at 10 µM [2]: < 20%
inhibition at 30 µM [2]: 89.32 ± 0.63%
inhibition at 10 µM [3]: < 20%
inhibition at 30 µM [3]: 92.91 ± 0.87%
inhibition at 10 µM [4]: 29.3 ± 1.68%
inhibition at 30 µM [4]: 96.31 ± 0.53%
inhibition at 10 µM [5]: < 20%
inhibition at 30 µM [5]: 91.38 ± 0.65%
inhibition at 10 µM [6]: < 20%
inhibition at 30 µM [6]: 79.4 ± 3.17%

— PMC10745768, “Stereoselective Synthesis and Antiproliferative Activity of Steviol-Based Diterpene 1,3-Aminoalcohol Regioisomers” (Molecules, 2023)
